One block for each compound: values may come before it. Activity calls are given as the source filed them. The calls are words filed in the database; no cut-off is given here.
What was measured:
[1] = biological target: T1, Protein deacetylase HDAC6 (Homo sapiens) (UniProt Q9UBN7); assay: HyT degrader activity at HDAC6 in human MCF7 cells assessed as induction of HDAC6 degradation by measuring decrease in HDAC6 level at 0.1 to 10 uM incubated for 24 hrs by immunoblot analysis; type: cell-based; settings: dose 0.1-10 µM
T1 sequence (whole entry): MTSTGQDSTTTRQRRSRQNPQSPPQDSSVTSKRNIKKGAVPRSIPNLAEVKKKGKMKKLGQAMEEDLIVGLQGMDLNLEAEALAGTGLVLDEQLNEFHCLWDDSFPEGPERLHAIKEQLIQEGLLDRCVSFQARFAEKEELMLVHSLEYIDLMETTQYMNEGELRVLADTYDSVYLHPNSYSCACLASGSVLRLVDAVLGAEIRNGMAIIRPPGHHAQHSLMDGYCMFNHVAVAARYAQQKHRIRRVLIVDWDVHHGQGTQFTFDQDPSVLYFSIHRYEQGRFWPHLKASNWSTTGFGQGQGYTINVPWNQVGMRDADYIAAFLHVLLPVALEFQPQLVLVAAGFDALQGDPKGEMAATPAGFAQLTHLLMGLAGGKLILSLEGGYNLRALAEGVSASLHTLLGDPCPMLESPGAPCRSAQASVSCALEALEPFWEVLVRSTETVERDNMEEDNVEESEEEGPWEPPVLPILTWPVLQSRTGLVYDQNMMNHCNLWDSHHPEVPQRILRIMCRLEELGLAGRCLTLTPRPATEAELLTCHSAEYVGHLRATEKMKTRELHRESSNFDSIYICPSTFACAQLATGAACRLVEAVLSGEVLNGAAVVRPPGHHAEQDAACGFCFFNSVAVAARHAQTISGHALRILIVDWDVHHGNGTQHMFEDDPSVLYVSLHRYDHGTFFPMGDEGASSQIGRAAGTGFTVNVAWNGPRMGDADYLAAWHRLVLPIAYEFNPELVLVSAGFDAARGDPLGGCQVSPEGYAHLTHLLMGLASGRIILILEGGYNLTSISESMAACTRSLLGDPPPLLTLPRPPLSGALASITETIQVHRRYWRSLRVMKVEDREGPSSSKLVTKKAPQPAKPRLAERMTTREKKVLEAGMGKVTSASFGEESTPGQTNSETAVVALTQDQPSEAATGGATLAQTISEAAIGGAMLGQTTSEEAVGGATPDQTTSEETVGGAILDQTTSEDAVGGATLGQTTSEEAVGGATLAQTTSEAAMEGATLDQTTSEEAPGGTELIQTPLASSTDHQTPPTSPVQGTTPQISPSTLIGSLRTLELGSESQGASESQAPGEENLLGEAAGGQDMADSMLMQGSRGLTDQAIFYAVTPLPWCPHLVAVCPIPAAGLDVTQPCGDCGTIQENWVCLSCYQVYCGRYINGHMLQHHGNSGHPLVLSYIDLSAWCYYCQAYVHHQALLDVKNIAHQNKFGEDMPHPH

[2] = biological target: T2, Histone deacetylase (Homo sapiens) (UniProt Q13547+O15379+Q9UBN7+Q92769+Q9UQL6+Q8WUI4+Q9BY41+Q96DB2+P56524+Q9UKV0+Q969S8); assay: HyT degrader activity at HDAC in human MCF7 cells assessed as induction of HDAC degradation by measuring increase in acetylated histone H3 level at 0.1 to 50 uM incubated for 24 hrs by immunoblot analysis; type: cell-based; settings: dose 0.1-50 µM
[3] = biological target: Histone deacetylase 1 (Homo sapiens) (UniProt Q13547); assay: HyT degrader activity at HDAC1 in human MCF7 cells assessed as induction of HDAC1 degradation by measuring decrease in HDAC1 level at 0.1 to 50 uM incubated for 24 hrs by immunoblot analysis; type: cell-based; settings: dose 0.1-50 µM
Sequence of Histone deacetylase 1 (Homo sapiens) (Q13547 whole entry): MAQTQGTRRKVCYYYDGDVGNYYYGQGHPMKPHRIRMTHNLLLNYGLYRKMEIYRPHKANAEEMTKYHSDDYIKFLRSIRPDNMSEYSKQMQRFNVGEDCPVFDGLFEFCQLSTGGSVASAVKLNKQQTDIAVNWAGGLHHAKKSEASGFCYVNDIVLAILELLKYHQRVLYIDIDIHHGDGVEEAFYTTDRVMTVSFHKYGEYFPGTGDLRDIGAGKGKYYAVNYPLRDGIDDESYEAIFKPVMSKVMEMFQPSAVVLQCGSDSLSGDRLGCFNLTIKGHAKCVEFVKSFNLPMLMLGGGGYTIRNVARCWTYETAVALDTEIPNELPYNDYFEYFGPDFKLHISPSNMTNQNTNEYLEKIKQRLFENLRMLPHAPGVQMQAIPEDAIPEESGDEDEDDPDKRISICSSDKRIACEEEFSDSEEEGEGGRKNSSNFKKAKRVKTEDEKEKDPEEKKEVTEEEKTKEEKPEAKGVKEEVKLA

[4] = biological target: T2, Histone deacetylase (Homo sapiens); assay: HyT degrader activity at HDAC in human MCF7 cells assessed as induction of HDAC degradation by measuring increase in acetylated alpha-tubulin level at 0.1 to 50 uM incubated for 24 hrs by immunoblot analysis; type: cell-based; settings: dose 0.1-50 µM
[5] = biological target: Histone deacetylase 1 (Homo sapiens) (UniProt Q13547); assay: HyT degrader activity at HDAC1 in human MCF7 cells assessed as induction of HDAC1 degradation at 10 uM incubated for 24 hrs by immunoblot analysis; type: cell-based
[6] = biological target: Histone deacetylase 2 (Homo sapiens) (UniProt Q92769); assay: HyT degrader activity at HDAC2 in human MCF7 cells assessed as induction of HDAC2 degradation by measuring decrease in HDAC2 level at 0.1 to 50 uM incubated for 24 hrs by immunoblot analysis; type: cell-based; settings: dose 0.1-50 µM
Sequence of Histone deacetylase 2 (Homo sapiens) (Q92769 whole entry): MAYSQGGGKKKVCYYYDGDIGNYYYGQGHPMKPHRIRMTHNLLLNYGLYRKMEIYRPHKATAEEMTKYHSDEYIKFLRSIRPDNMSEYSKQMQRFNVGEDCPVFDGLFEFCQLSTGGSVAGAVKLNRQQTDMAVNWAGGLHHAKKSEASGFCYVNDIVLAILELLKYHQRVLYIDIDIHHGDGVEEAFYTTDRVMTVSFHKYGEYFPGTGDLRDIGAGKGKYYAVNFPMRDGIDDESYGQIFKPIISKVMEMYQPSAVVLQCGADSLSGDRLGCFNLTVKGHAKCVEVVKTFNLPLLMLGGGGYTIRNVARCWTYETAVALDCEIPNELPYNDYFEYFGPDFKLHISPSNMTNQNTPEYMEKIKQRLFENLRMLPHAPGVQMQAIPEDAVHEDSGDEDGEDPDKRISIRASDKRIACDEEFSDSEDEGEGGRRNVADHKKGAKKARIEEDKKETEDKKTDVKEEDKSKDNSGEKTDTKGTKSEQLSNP

[7] = system: MCF7; assay: Antiproliferative activity against human MCF7 cells assessed as reduction in cell viability incubated for 48 hrs by MTT assay; type: functional, cell-based; settings: MCF7, 48 h
[8] = system: MCF7; assay: Antiproliferative activity against human MCF7 cells assessed as reduction in cell viability incubated for 48 hrs by MTT assay relative to control; type: functional
[9] = system: MCF7; assay: Antiproliferative activity against human MCF7 cells overexpressing ER-alpha Y537S mutant assessed as reduction in cell viability incubated for 48 hrs by MTT assay relative to control; type: functional
[10] = system: MCF7; assay: Antiproliferative activity against human MCF7 cells overexpressing EGFR assessed as reduction in cell viability incubated for 48 hrs by MTT assay; type: functional, cell-based; settings: MCF7, 48 h
[11] = biological target: T3, Estrogen receptor (Homo sapiens) (UniProt P03372); assay: HyT degrader activity at ER-alpha in human MCF7 cells assessed as induction of ER-alpha degradation by measuring decrease in ER-alpha level at 10 uM incubated for 48 hrs by western blot analysis; type: cell-based; set-up: scale not given: the % may be the effect or the level left
T3 sequence (whole entry): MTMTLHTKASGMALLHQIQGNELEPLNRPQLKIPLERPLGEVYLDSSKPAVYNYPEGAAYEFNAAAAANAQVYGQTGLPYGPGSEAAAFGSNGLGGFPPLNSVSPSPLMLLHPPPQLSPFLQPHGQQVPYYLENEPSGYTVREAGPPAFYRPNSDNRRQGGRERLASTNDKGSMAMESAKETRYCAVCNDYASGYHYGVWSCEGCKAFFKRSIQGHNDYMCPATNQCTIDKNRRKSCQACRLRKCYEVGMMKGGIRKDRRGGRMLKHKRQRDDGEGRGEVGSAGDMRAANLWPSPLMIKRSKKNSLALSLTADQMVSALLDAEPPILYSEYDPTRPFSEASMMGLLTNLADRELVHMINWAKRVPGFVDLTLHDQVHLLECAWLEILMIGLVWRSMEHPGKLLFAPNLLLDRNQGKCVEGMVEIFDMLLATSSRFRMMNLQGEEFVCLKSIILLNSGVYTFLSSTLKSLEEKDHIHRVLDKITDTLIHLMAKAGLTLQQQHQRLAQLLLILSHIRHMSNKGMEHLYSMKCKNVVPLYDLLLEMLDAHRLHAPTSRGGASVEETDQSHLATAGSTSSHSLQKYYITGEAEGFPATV

[12] = system: MCF7; assay: Antiproliferative activity against human MCF7 cells overexpressing EGFR assessed as reduction in cell viability incubated for 48 hrs by MTT assay relative to control; type: functional
[13] = system: MCF7; assay: Antiproliferative activity against human MCF7 cells overexpressing ER-alpha Y537S mutant assessed as reduction in cell viability incubated for 48 hrs by MTT assay; type: functional, cell-based; settings: MCF7, 48 h
[14] = biological target: T3, Estrogen receptor (Homo sapiens); assay: HyT degrader activity at ER-alpha in human MCF7 cells assessed as induction of ER-alpha degradation by measuring decrease in ER-alpha level at 10 uM incubated for 48 hrs followed by drug wash-out and measured after 24 hrs by western blot analysis; type: cell-based
[15] = system: MCF7; assay: Antitumor activity against human MCF7 cells xenografted in Balb/c mouse assessed as inhibition of tumor growth at 5 mg/kg, iv administered every 3 days and measured for 21 days; type: functional; settings: MCF7, 504 h, time 21 day, read-out: TGI
[16] = biological target: Cyclin-dependent kinase 6 (Homo sapiens) (UniProt Q00534); assay: HyT degrader activity at CDK6 in human MCF7 cells assessed as induction of CDK6 degradation at 10 uM incubated for 24 hrs by immunoblot analysis; type: cell-based
Sequence of Cyclin-dependent kinase 6 (Homo sapiens) (Q00534 whole entry): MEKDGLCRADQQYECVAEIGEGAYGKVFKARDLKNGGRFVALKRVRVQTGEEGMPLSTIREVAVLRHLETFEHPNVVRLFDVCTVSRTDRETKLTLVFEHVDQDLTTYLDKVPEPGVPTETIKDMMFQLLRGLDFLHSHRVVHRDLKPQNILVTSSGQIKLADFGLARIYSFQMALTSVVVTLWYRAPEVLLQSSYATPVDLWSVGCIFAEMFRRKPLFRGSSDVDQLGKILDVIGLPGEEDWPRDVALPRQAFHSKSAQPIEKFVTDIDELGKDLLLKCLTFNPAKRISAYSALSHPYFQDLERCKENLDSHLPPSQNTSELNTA

[17] = biological target: Cyclin-dependent kinase 6 (Homo sapiens) (UniProt Q00534); assay: HyT degrader activity at CDK6 in human MCF7 cells assessed as induction of CDK6 degradation at 0.1 to 10 uM incubated for 24 hrs by immunoblot analysis; type: cell-based; settings: dose 0.1-10 µM

Compound: C[C@@H]1CCC2[C@]34OO[C@](C)(CCC13)OC4O[C@]2(C)C(=O)NCCCC(=O)Nc1ccc(NC(=O)CCCCCCC(=O)NO)cc1 (single isomer, unassigned)
- Activity [1]: Active
- Activity [2]: Active
- Activity [3]: Active
- Activity [4]: Active
- Activity [5]: 84%
- Activity [6]: Active
- IC50 [7]: 5.26 µM

Compound: C[C@@H]1CCC2[C@]34OO[C@](C)(CCC13)O[C@@H]4O[C@]2(C)C(=O)NCCCCCCOc1ccc(C(=O)c2c(-c3ccc(O)cc3)sc3cc(O)ccc23)cc1 (stereo partly specified)
- inhibition (INH) [8]: 57.1%
- IC50 [7]: 45.7 µM

- IC50 [10]: 16 µM
- IC50 [7]: 9.54 µM
- Activity [11]: 77.5%
- IC50 [13]: > 50 µM
- Activity [14]: Active
Compound: O=C(c1ccc(OCCCNC(=O)C23CC4CC(CC(C4)C2)C3)cc1)c1c(-c2ccc(O)cc2)sc2cc(O)ccc12
- inhibition (INH) [8]: 70.8%
- inhibition (INH) [9]: 41.7%
- inhibition (INH) [12]: 57.9%

Compound: O=C(c1ccc(OCCN2CCCCC2)cc1)c1c(-c2ccc(O)cc2)sc2cc(O)ccc12 [RALOXIFENE]
- inhibition in vivo at 5 mg/kg [15]: 68.8%

Compound: C[C@]12CC[C@@H]3c4ccc(O)cc4C[C@@H](CCCCCCCCC[S+]([O-])CCCC(F)(F)C(F)(F)F)[C@H]3[C@@H]1CC[C@@H]2O (stereo partly specified) [FULVESTRANT]
- inhibition in vivo at 5 mg/kg [15]: 87%

Compound: CC(=O)c1c(C)c2cnc(NCCCNC(=O)[C@@]3(C)OC4O[C@@]5(C)CCC6[C@H](C)CCC3[C@@]46OO5)nc2n(C2CCCC2)c1=O (single isomer, unassigned)
- Activity [16]: 73%
- Activity [17]: Active
- IC50 [7]: 5 µM

Compound: C[C@@H]1CCC2[C@]34OO[C@](C)(CCC13)O[C@@H]4O[C@]2(C)C(=O)NCCCCOc1ccc(C(=O)c2c(-c3ccc(O)cc3)sc3cc(O)ccc23)cc1 (stereo partly specified)
- inhibition (INH) [8]: 63.5%
- IC50 [7]: 11.4 µM

Compound: C[C@@H]1CCC2[C@]34OO[C@](C)(CCC13)OC4O[C@]2(C)C(=O)NCCOc1ccc(C(=O)c2c(-c3ccc(O)cc3)sc3cc(O)ccc23)cc1 (single isomer, unassigned)
- inhibition (INH) [8]: 42.6%
- IC50 [7]: > 100 µM
